This note sets out measurements from patent US12643879B2, “Functionalized heterocyclic compounds as modulators of stimulator of interferon genes (STING)” (RYVU THERAPEUTICS S.A., priority 2019, dated 2026).

Usually EC50 stands for the concentration that produces a half-maximal response.

Counter-ions that a name gives are not always drawn. Like-named read-outs stand apart in the source and are kept apart here.

The test system of test [1] is NF-κB pathway in THP-1 dual cells. The experiment in a line: THP-1 Dual reporter assay, NF-κB pathway (SEAP). As to conditions: Homo sapiens, THP1-Dual, read-out: THP1 Dual EC50 (μM) NFkB. It counts as cell-based. The method, then:
(§1) Compounds of the present invention were tested for their activity using THP-1 dual cells (Invivogen, cat no. thpd-nfis) allowing for simultaneous study of NF-κB pathway and the interferon regulatory factor (IRF) pathway. THP-1 dual cells contain luciferase reporter gene under the control of an ISG54 (interferon-stimulated gene) minimal promoter in conjunction with five interferon-stimulated response elements and a secreted embryonic alkaline phosphatase reporter gene under the control an IFN (interferon)-β minimal promoter fused to five copies of the NF-κB consensus transcriptional response element with three copies of the c-Rel binding site. Following 18 h of stimulation with STING agonist, medium was collected and transferred onto fresh cell culture plate. To verify activity of the IRF pathway, luminescence activity was measured with standard laboratory plate reader immediately after addition 10 μl of the medium to 40 or 50 μl of luminescence reagent (Invivogen, cat. No. rep-qlc2). To verify activity of NF-κB pathway, 10 or 20 μl of the medium was mixed with 80 μl of a detection medium (Invivogen, cat. No. rep-qb2) and incubated for 1 or 2 hours at 37° C. in a humidified atmosphere containing 5% CO2. Next, absorbance at 630 or 655 nm was recorded using standard laboratory plate reader.

In test [2] the test system is interferon regulatory factor (IRF) pathway in THP-1 dual cells. Nature of the test: THP-1 Dual reporter assay, IRF pathway (luciferase). It counts as cell-based. As to conditions: Homo sapiens, THP1-Dual, read-out: THP1 Dual EC50 (μM) IRF. The method, then:
as §1
(In general: Reporter assays use an easily measured gene product as a stand-in for the process of interest.)

The mark [3] stands for this setting: 18 h stimulation, absorbance at 630 or 655 nm.

With `Cc1ccc(N2CCC[C@H](N(Cc3ccnc(C)c3)Cc3cn(C4CC4)c4cc(N5CC[C@@H](NC(=O)OCc6ccc(NC(=O)[C@H](CCCNC(N)=O)NC(=O)[C@@H](NC(=O)CCOCCOCCOCCN=[N+]=[N-])C(C)C)cc6)C5)c(F)cc4c3=O)C2)cn1` [Example 12A, {4-[(2S)-2-[(2S)-2-(3-{2-[2-(2-azidoethoxy)ethoxy]ethoxy}propanamido)-3-methyl-butanamido]-5-(carbamoylamino)pentanamido]phenyl}methyl N-[(3R)-1-[1-cyclopropyl-6-fluoro-3-({[(3S)-1-(6-methylpyridin-3-yl)piperidin-3-yl][(2-methylpyridin-4-yl)methyl]amino}methyl)-4-oxo-1,4-dihydroquinolin-7-yl]pyrrolidin-3-yl]carbamate], the EC50 in test [1] (setting [3]) was above 10 µM; in test [2] (18 h stimulation, luminescence), 1 to 10 µM.

As to `Cc1ccc(N2CCC[C@H](N(Cc3ccnc(C)c3)Cc3cn(C4CC4)c4cc(N5CC[C@H](CNC(=O)CCOCCOCCOCCOCCN)C5)c(F)cc4c3=O)C2)cn1` [Example 15A, 1-amino-N-{[(3R)-1-[1-cyclopropyl-6-fluoro-3-({[(3S)-1-(6-methylpyridin-3-yl)piperidin-3-yl][(2-methylpyridin-4-yl)methyl]amino}methyl)-4-oxo-1,4-dihydroquinolin-7-yl]pyrrolidin-3-yl]methyl}-3,6,9,12-tetraoxapentadecan-15-amide], the EC50 was 1 to 10 µM in test [1] (setting [3]) and 1 to 10 µM in test [2] (18 h stimulation, luminescence).

As for `Cc1ccc(N2CCC[C@H](N(Cc3ccnc(C)c3)Cc3cn(C4CC4)c4cc(N5CCC(N(C)C(=O)OCc6ccc(NC(=O)[C@H](CCCNC(N)=O)NC(=O)[C@@H](NC(=O)CCOCCOCCOCCN=[N+]=[N-])C(C)C)cc6)CC5)c(F)cc4c3=O)C2)cn1` [Example 19A], the concentration for a half-maximal effect (EC50) in test [1] (setting [3]) was in the range of 1 to 10 µM; in test [2] (18 h stimulation, luminescence), 1 to 10 µM.

Consider `C#CCOCCOCCOCCOCCOCCC(=O)O[C@H]1CCCN(c2cc3c(cc2F)c(=O)c(CN(Cc2ccnc(C)c2)[C@H]2CCCN(c4ccc(C)nc4)C2)cn3C2CC2)C1` [Example 31A, (3S)-1-[1-cyclopropyl-6-fluoro-3-({[(3S)-1-(6-methylpyridin-3-yl)piperidin-3-yl][(2-methylpyridin-4-yl)methyl]amino}methyl)-4-oxo-1,4-dihydroquinolin-7-yl]piperidin-3-yl 4,7,10,13,16-pentaoxanonadec-18-ynoate], for which the 50% effective concentration (EC50) in test [1] (setting [3]) was below 1 µM; in test [2] (18 h stimulation, luminescence) it was below 1 µM.

Regarding `C#CCOCCOCCOCCOCCOCCC(=O)Nc1ccc(CNC(=O)O[C@H]2CCCN(c3cc4c(cc3F)c(=O)c(CN(Cc3ccnc(C)c3)[C@H]3CCCN(c5ccc(C)nc5)C3)cn4C3CC3)C2)cc1` [Example 31B, (3S)-1-[1-cyclopropyl-6-fluoro-3-({[(3S)-1-(6-methylpyridin-3-yl)piperidin-3-yl][(2-methylpyridin-4-yl)methyl]amino}methyl)-4-oxo-1,4-dihydroquinolin-7-yl]piperidin-3-yl N-{[4-(4,7,10,13,16-pentaoxanonadec-18-ynamido)phenyl]methyl}carbamate], the EC50 in test [1] (setting [3]) was below 1 µM; in test [2] (18 h stimulation, luminescence), below 1 µM.

`Cc1cc(CN(Cc2c[nH]c3ccccc3c2=O)[C@H]2CCCN(c3ccc(N)nc3)C2)ccn1` [Example 38, 3-({[(3S)-1-(6-aminopyridin-3-yl)piperidin-3-yl][(2-methylpyridin-4-yl)methyl]amino}methyl)-1,4-dihydroquinolin-4-one]: the EC50 in test [1] (setting [3]) is below 1 µM; in test [2] (18 h stimulation, luminescence) it was below 1 µM.

On to `Cc1ccc(N2CCC[C@H](N(Cc3ccnc(C)c3)Cc3cn(C4CC4)c4cc(N5CC[C@H](O)C5)c(F)cc4c3=O)C2)cn1` [Example 39, 1-cyclopropyl-6-fluoro-7-[(3S)-3-hydroxypyrrolidin-1-yl]-3-({[(3S)-1-(6-methylpyridin-3-yl)piperidin-3-yl][(2-methylpyridin-4-yl)methyl]amino}methyl)-1,4-dihydroquinolin-4-one hydrochloride], for which the EC50 is below 1 µM in test [1] (setting [3]) and below 1 µM in test [2] (18 h stimulation, luminescence).

As to `Cc1cc(CN(Cc2cn(C)c3ccccc3c2=O)[C@H]2CCCN(c3ccc(CO)nc3)C2)ccn1` [Example 40, 3-({[(3S)-1-[6-(hydroxymethyl)pyridin-3-yl]piperidin-3-yl][(2-methylpyridin-4-yl)methyl]amino}methyl)-1-methyl-1,4-dihydroquinolin-4-one], the EC50 in test [1] (setting [3]) lay within 1 to 10 µM; in test [2] (18 h stimulation, luminescence), 1 to 10 µM.

For `Cc1ccc(N2CCC[C@H](N(Cc3ccnc(C)c3)Cc3cn(CCO)c4ccccc4c3=O)C2)cn1` [Example 41, 1-(2-hydroxyethyl)-3-({[(3S)-1-(6-methylpyridin-3-yl)piperidin-3-yl][(2-methylpyridin-4-yl)methyl]amino}methyl)-1,4-dihydroquinolin-4-one], the EC50 in test [1] (setting [3]) is 1 to 10 µM; in test [2] (18 h stimulation, luminescence), 1 to 10 µM.

With `Cc1ccc(N2CCC[C@H](N(Cc3ccnc(C)c3)Cc3cn(C(C)C)c4nc(N5CC[C@@H](O)C5)c(F)cc4c3=O)C2)cn1` [Example 42, 6-fluoro-7-[(3R)-3-hydroxypyrrolidin-1-yl]-3-({[(3S)-1-(6-methylpyridin-3-yl)piperidin-3-yl][(2-methylpyridin-4-yl)methyl]amino}methyl)-1-(propan-2-yl)-1,4-dihydro-1,8-naphthyridin-4-one], the concentration for a half-maximal effect (EC50) in test [1] (18 h) and in test [2] (18 h) was below 1 µM throughout.

For the compound `Cc1cc(CN(Cc2cn(C)c3ccccc3c2=O)[C@H]2CCCN(c3ccc(CCO)nc3)C2)ccn1` [Example 43, 3-({[(3S)-1-[6-(2-hydroxyethyl)pyridin-3-yl]piperidin-3-yl][(2-methylpyridin-4-yl)methyl]amino}methyl)-1-methyl-1,4-dihydroquinolin-4-one], the concentration for a half-maximal effect (EC50) in test [1] (18 h) and in test [2] (18 h) was 1 to 10 µM in each case.

Regarding `Cc1cc(CN(Cc2cn(C)c3ccccc3c2=O)[C@H]2CCCN(c3cncc(CO)c3)C2)ccn1` [Example 44], the EC50 in test [1] (18 h) and in test [2] (18 h) was above 10 µM throughout.

`C#CCOCCOCCOCCOCCOCCC(=O)OCCOc1cc2c(cc1F)c(=O)c(CN(Cc1ccnc(C)c1)[C@H]1CCCN(c3ccc(C)nc3)C1)cn2C1CC1` [Example 47A, 2-{[1-cyclopropyl-6-fluoro-3-({[(3S)-1-(6-methylpyridin-3-yl)piperidin-3-yl][(2-methylpyridin-4-yl)methyl]amino}methyl)-4-oxo-1,4-dihydroquinolin-7-yl]oxy}ethyl 4,7,10,13,16-pentaoxanonadec-18-ynoate]: the EC50 in test [1] (setting [3]) was below 1 µM; in test [2] (18 h stimulation, luminescence), below 1 µM.

Take `Cc1ccc(N2CCC[C@H](N(Cc3ccnc(C)c3)Cc3cn(C4CC4)c4cc(OCCOC(=O)NCc5ccc(NC(=O)CCOCCOCCOCCNC(=O)OC(C)(C)C)cc5)c(F)cc4c3=O)C2)cn1` [Example 47B, 2-{[1-cyclopropyl-6-fluoro-3-({[(3S)-1-(6-methylpyridin-3-yl)piperidin-3-yl][(2-methylpyridin-4-yl)methyl]amino}methyl)-4-oxo-1,4-dihydroquinolin-7-yl]oxy}ethyl N-{[4-(3-{2-[2-(2-{[(tert-butoxy)carbonyl]amino}ethoxy)ethoxy]ethoxy}propanamido)phenyl]methyl}carbamate]: the EC50 in test [1] (18 h) and in test [2] (18 h) was below 1 µM throughout.
